Assay results published in patent US20250222009A1, “DINUCLEAR GOLD(I) COMPLEXES FOR TREATING CANCER” (KING FAHD UNIVERSITY OF PETROLEUM AND MINERALS, priority 2024, published 2025).

Experiments:
Format in all cases: cell-based, human
[1] = test system: A549-MCTSs; assay: 3D-A549-MCTS viability (PrestoBlue); settings: 72 h, PrestoBlue, poly-HEMA coated wells
Description: To obtain multiple spheroids, 10.0×10^4 A549 cells were seeded in non-adherent conditions on poly-HEMA coated 96 wells (final volume, 200 μL) for four days. After drug treatment (72 h), the cell viability was determined using PrestoBlue Cell Viability Reagent (Thermo Fisher Scientific, Frederick, MD, USA) (See: Casagrande, N.; Celegato, M.; Borghese, C.; Mongiat, M.; Colombatti, A.; Aldinucci, D. Preclinical Activity of the Liposomal Cisplatin Lipoplatin in Ovarian Cancer. Clin Cancer Res 2014, 20, 5496-5506, which is incorporated herein by reference in its entirety).
3D-MCTSs are a model for in vitro drug testing (See: Zanoni, M.; Piccinini, F.; Arienti, C.; Zamagni, A.; Santi, S.; Polico, R.; Bevilacqua, A.; Tesei, A. 3D Tumor Spheroid Models for in Vitro Therapeutic Screening: A Systematic Approach to Enhance the Biological Relevance of Data Obtained. Sci Rep 2016, 6, 19103, which is incorporated herein by reference in its entirety) and to test drug tissue penetration. Thus, the effects of complex 3 in A549-MCTSs were determined by cultivating tumor cells in non-adherent conditions on poly-HEMA coated wells. […] Representative micro-photographs of A549-MCTSs treated with complex 3 (0.3-5 μM) and with cisplatin (15-250 μM) are shown in FIG. 9C.

[2] = test system: caspase-3,7; assay: Caspase-3,7 activation (CaspaTag/FLICA), flow cytometry; settings: A549, 24 h
Description: (§1) 2.0×10^5 A549 cells were seeded in 6-well plates in a complete medium and treated with the complex 3. Assay results were detected by flow cytometry on a BD FACSCanto II flow cytometer. Data were analyzed using BD FACSDiva v.8.0.1 software (BD Biosciences) unless otherwise indicated. Tumor cells were treated for 72 h with complex 3, then stained for 15 minutes with FITC Annexin-V (Thermo Fisher Scientific) and 7AAD (BD Pharmingen, Milan, Italy). Activated caspase-3,7 was detected using the CaspaTag Caspase-3,7 assay (Merck Millipore) after an incubation of 24 h with complex 3. For B-cell lymphoma/leukemia-2 protein (Bcl-2) and Bcl-2 associated x protein (Bax) analysis, cells were treated for 72 h with C3, then fixed and permeabilized (FIX & PERM Cell Fixation & Cell Permeabilization Kit, Life Technologies). […] The distribution of cells in different cell cycle phases was quantified using ModFit LT 4.0 software (Verity Software House, Topsham, ME, USA) (See: Sulaiman, A. A. A.; Casagrande, N.; Borghese, C.; Corona, G.; Isab, A. A.; Ahmad, S.; Aldinucci, D.; Altaf M. Design, Synthesis, and Preclinical Activity in Ovarian Cancer Models of New Phosphanegold(I)—N-Heterocyclic Carbene Complexes. J Med Chem 2022, 65, 14424-14440, which is incorporated herein by reference in its entirety). […]

[3] = test system: BAX; assay: BAX expression, flow cytometry; settings: A549, 72 h
Description: as §1

[4] = test system: 20S proteasome; assay: 20S Proteasome Activity Assay in treated cell lysates; settings: A549 cells treated 4 h
Description: Cells were treated with complex 3 (4 h), and then cells were lysed in 50 mM Tris-HCl pH 7.6, 0.1% Triton X-100, 0.9% NaCl to obtain the Proteasome activity (EC 3.4.25.1). The proteasome activity was tested using the 20S Proteasome Activity Assay kit APT280 (Merck Millipore) and a computer-interfaced GeniusPlus microplate reader (Tecan Trading AG, Switzerland). The activity was normalized to the protein concentration and expressed as a percentage of control (untreated cells).

[5] = test system: TrxR; assay: Thioredoxin reductase activity in treated cell lysates; settings: A549 cells treated 24 h
Description: Cells were treated with complex 3 (24 h) and then lysed in 50 mM Tris-HCl pH 7.6, 0.1% Triton X-100, 0.9% NaCl to obtain the TrxR activity. TrxR (EC 1.8.1.9) was assayed using the Thioredoxin Reductase Assay Kit (Sigma-Aldrich). Enzyme activity was determined by reading the absorbance at 412 nm using a spectrophotometer (Biomate 3 Thermo Spectronic, Thermo Electronic Corporation, Monza, Italy) and normalized to the protein concentration, determined with the Bio-Rad protein assay (Protein Assay Dye Reagent Concentrate, Bio-Rad Laboratories, Segrate, Italy).

[6] = test system: CD133; assay: CD133 surface expression, flow cytometry; settings: A549, 24 h
Description: as §1

`CC(C)c1cccc(C(C)C)c1-n1ccn(-c2c(C(C)C)cccc2C(C)C)[c]1=[Au-][P+](CCNCC[P+]([Au-]=[c]1n(-c2c(C(C)C)cccc2C(C)C)ccn1-c1c(C(C)C)cccc1C(C)C)(C1CCCCC1)C1CCCCC1)(C1CCCCC1)C1CCCCC1` [Complex 3, [(Au(IPr))2(C28H24P2)](PF6)2] was tested, and the IC50 [1] was 950 nM, the “caspase-3,7 activation” value [2] was “activated” and the “pro-apoptotic BAX expression” value [3] was “induced”. For the same molecule, the 20S proteasome activity [4] was “inhibited in a dose-dependent manner”, the TrxR enzymatic activity [5] was “not modified” and the CD133 expression levels [6] was “reduced”.
